Test results as given in patent US20100285145A1, “GPR 119 MODULATORS” (PFIZER INC, priority 2009, published 2010).

Key:
human GPR119 [1] = target: T1, human GPR119 (Homo sapiens, UniProt Q8TDV5); test: β-Lactamase reporter functional assay (hGPR119 HEK293-CRE beta-lactamase cells); assay type: cell-based; set-up: host or cells: HEK293-CRE beta-lactamase; Emax: dose or concentration left out as unconfirmed
T1 sequence (Q8TDV5 1-335): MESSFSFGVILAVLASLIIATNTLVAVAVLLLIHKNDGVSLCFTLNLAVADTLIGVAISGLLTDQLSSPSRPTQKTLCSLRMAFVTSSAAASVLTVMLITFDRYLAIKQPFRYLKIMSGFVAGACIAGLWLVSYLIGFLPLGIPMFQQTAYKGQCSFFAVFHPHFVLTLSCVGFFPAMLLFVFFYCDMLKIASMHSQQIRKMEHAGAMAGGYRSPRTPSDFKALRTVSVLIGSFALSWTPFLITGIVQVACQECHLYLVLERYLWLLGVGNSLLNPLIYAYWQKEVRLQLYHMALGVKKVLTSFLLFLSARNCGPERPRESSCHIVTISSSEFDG
Experimental: The assay for GPR119 agonists utilizes a cell-based (hGPR119 HEK293-CRE beta-lactamase) reporter construct where agonist activation of human GPR119 is coupled to beta-lactamase production via a cyclic AMP response element (CRE). GPR119 activity is then measured utilizing a FRET-enabled beta-lactamase substrate, CCF4-AM (Live Blazer FRET-B/G Loading kit, Invitrogen cat #K1027). Specifically, hGPR119-HEK-CRE-beta-lactamase cells (Invitrogen 2.5×10^7/mL) were removed from liquid nitrogen storage, and diluted in plating medium (Dulbecco's modified Eagle medium high glucose (DMEM; Gibco Cat # 11995-065), 10% heat inactivated fetal bovine serum (HIFBS; Sigma Cat # F4135), 1×MEM Nonessential amino acids (Gibco Cat # 15630-080), 25 mM HEPES pH 7.0 (Gibco Cat # 15630-080), 200 nM potassium clavulanate (Sigma Cat # P3494). The cell concentration was adjusted using cell plating medium and 50 microL of this cell suspension ([…]) was added into each well of a black, clear bottom, poly-d-lysine coated 384-well plate (Greiner Bio-One cat# 781946) and incubated at 37 degrees Celsius in a humidified environment containing 5% carbon dioxide. After 4 hours the plating medium was removed and replaced with 40 microL of assay medium (Assay medium is plating medium without potassium clavulanate and HIFBS). Varying concentrations of each compound to be tested was then added in a volume of 10 microL (final DMSO ≦0.5%) and the cells were incubated for 16 hours at 37 degrees Celsius in a humidified environment containing 5% carbon dioxide. Plates were removed from the incubator and allowed to equilibrate to room temperature for approximately 15 minutes. 10 microL of 6×CCF4/AM working dye solution (prepared according to instructions in the Live Blazer FRET-B/G Loading kit, Invitrogen cat #K1027) was added per well and incubated at room temperature for 2 hours in the dark. Fluorescence was measured on an EnVision fluorimetric plate reader, excitation 405 nm, emission 460 nm/535 nm. EC50 determinations were made from agonist-response curves analyzed with a curve fitting program using a 4-parameter logistic dose-response equation.

human GPR119 [2] = target: T1, human GPR119; test: GPR119 radioligand binding assay ([3H]-Compound A or B, membranes of HEK 293FT cells expressing hGPR119); set-up: host or cells: HEK293-CRE beta-lactamase; conditions: calculated from IC50 with Cheng-Prusoff; each line a separate determination
Experimental: HEK 293FT cells (Invitrogen, Carlsbad, Calif.) were grown in a shake flask in 293Freestyle medium (Invitrogen) supplemented with 50 microg/mL neomycin and 10 mM HEPES (37C, 8% carbon dioxide, shaking). The cells were centrifuged gently (approximately 500×g, 10 minutes) and the pellet resuspended in a mixture of Dulbecco's PBS (minus Mg++/−Ca++) supplemented with 18% fetal bovine serum (Sigma Aldrich) and P1 virus such that the multiplicity of infection (MOI) was 10 and the final cell density was 1.3×10^6/mL (total volume 2.5 liters). The cells were transferred to a 5 liter Wave Bioreactor Wavebag (Wave Technologies, Mass.) and incubated for 4 hours at 27 degrees Celsius (17 rocks/min, 7 degrees platform angle); at the end of the incubation period, an equal volume (2.5 liters) of 293Freestyle medium supplemented with 30 mM sodium butyrate (Sigma Aldrich) was added (final concentration=15 mM), and the cells were grown for 20 hours (37 degrees Celsius, 8% CO2 [0.2 liters/min}, 25 rocks/minute, 7 degrees platform angle). Cells were harvested via centrifugation (3,000×g, 10 minutes), washed once on DPBS (minus Ca++/Mg++), resuspended in 0.25M sucrose, 25 mM HEPES, 0.5 mM EDTA, pH 7.4 and frozen at −80 degrees Celsius.
The frozen cells were thawed on ice and centrifuged at 700×g (1400 rpm) for 10 minutes at 4 degrees Celsius. The cell pellet was resuspended in 20 mL phosphate-buffered saline, and centrifuged at 1400 rpm for 10 minutes. The cell pellet was then resuspended in homogenization buffer (10 mM HEPES (Gibco #15630), pH 7.5, 1 mM EDTA (BioSolutions, #BIO260-15), 1 mM EGTA (Sigma, #E-4378), 0.01 mg/mL benzamidine (Sigma #B 6506), 0.01 mg/mL bacitracin (Sigma #B 0125), 0.005 mg/mL leupeptin (Sigma #L 8511), 0.005 mg/mL aprotinin (Sigma #A 1153)) and incubated on ice for 10 minutes. Cells were then lysed with 15 gentle strokes of a tight-fitting glass Dounce homogenizer. The homogenate was centrifuged at 1000×g (2200 rpm) for 10 minutes at 4 degrees Celsius. The supernatant was transferred into fresh centrifuge tubes on ice. The cell pellet was resuspended in homogenization buffer, and centrifuged again at 1000×g (2200 rpm) for 10 minutes at 4 degrees Celsius after which the supernatant was removed and the pellet resuspended in homogenization buffer. This process was repeated a third time, after which the supernatants were combined, Benzonase (Novagen # 71206) and MgCl2 (Fluka #63020) were added to final concentrations of 1 U/mL and 6 mM, respectively, and incubated on ice for one hour. The solution was then centrifuged at 25,000×g (15000 rpm) for 20 minutes at 4 degrees Celsius, the supernatant was discarded, and the pellet was resuspended in fresh homogenization buffer (minus Benzonase and MgCl2). After repeating the 25,000×g centrifugation step, the final membrane pellet was resuspended in homogenization buffer and frozen at −80 degrees Celsius. The protein concentration was determined using the Pierce BCA protein assay kit (Pierce reagents A #23223 and B #23224).
Test compounds were serially diluted in 100% DMSO (J. T. Baker #922401). 2 microL of each dilution was added to appropriate wells of a 96-well plate (each concentration in triplicate). Unlabeled Compound A (or Compound B), at a final concentration of 10 microM, was used to determine non-specific binding. [^3H]-Compound A (or [^3H]-Compound B) was diluted in binding buffer (50 mM Tris-HCl, pH 7.5, (Sigma #T7443), 10 mM MgCl2 (Fluka 63020), 1 mM EDTA (BioSolutions #BIO260-15), 0.15% bovine serum albumin (Sigma #A7511), 0.01 mg/mL benzamidine (Sigma #B 6506), 0.01 mg/mL bacitracin (Sigma #B 0125), 0.005 mg/mL leupeptin (Sigma #L 8511), 0.005 mg/mL aprotinin (Sigma #A 1153)) to a concentration of 60 nM, and 100 microL added to all wells of 96-well plate (Nalge Nunc # 267245). […]

EC50 (human GPR119 [1]; hGPR119 HEK293-CRE beta-lactamase cells, 16 h incubation, each line a separate determination, read-out: Human B-lactamase Functional EC50): 96.6 nM
Emax (human GPR119 [1]; percent of maximal activity relative to standard GPR119 agonist at 10 micromolar, read-out: Intrinsic Activity (Human B-lactamase)): 101%
Ki (human GPR119 [2]): 285 nM
SMILES: COc1c(OC2CCN(C(=O)OC(C)C)CC2)ncnc1N1CCc2cc(S(C)(=O)=O)ccc21 [Example 7, Isopropyl 4-({5-methoxy-6-[5-(methylsulfonyl)-2,3-dihydro-1H-indol-1-yl]pyrimidin-4-yl}oxy)piperidine-1-carboxylate]
